From patent publication US9849197B2, “Switching-type fluorescent nanoparticle probe, and fluorescent molecular imaging method using same” (KYOTO UNIVERSITY, priority 2011, dated 2017)

Test: Change in fluorescence intensity of lactosome encapsulating fluorescent dye due to change in external environment 1
Format: physicochemical
Details: lactosome encapsulating 20 mol % of the dye; for fluorescence intensity in the SDS solution: 5 wt % SDS 1:1, room temperature 30 minutes; for fluorescence intensity in the BSA solution: 5 wt % albumin (BSA) 1:1, room temperature 30 minutes; for fluorescence intensity in the plasma: plasma from male ddY mice 1:1, room temperature 30 minutes
From the text: In FIGS. 2(A) to 2(D), the horizontal axis represents wavelength and the vertical axis represents fluorescence intensity.

CC1(C)C(/C=C/C2=C(Cl)C(=C/C=C3/N(CCCCCC(=O)O)c4ccc5ccccc5c4C3(C)C)/CCC2)=[N+](CCO)c2ccc3ccccc3c21 [IC7-1]
recovered: fluorescence intensity in the SDS solution | fluorescence intensity in the BSA solution | fluorescence intensity in the plasma

CC1(C)C(/C=C/C=C/C=C/C=C2\N(CCCCS(=O)(=O)O)c3ccc4ccccc4c3C2(C)C)=[N+](CCCCS(=O)(=O)[O-])c2ccc3ccccc3c21 [ICG, indocyanine green]
recovered: fluorescence intensity in the SDS solution | fluorescence intensity in the BSA solution | fluorescence intensity in the plasma
